Calls of active or inactive are those of the source. No cut-off for these calls is given here.
Assays:
[1] = target: T1, Autotaxin (Homo sapiens, UniProt Q13822); assay: Inhibition of glycosylated human ATX using FS-3 as substrate preincubated for 45 mins under shaking condition followed by substrate addition and measured after 45 mins by fluorescence assay
[2] = Antiproliferative activity against Wistar/Sprague-Dawley rat cardiac fibroblasts assessed as inhibition of cell proliferation at 10 uM measured after 24 hrs by MTT assay relative to control; assay type: functional, CF [Rat heart fibroblast]; details: Fibroblast
[3] = Antiproliferative activity against Sprague-Dawley rat T-HSC/Cl-6 assessed as inhibition of cell proliferation at 10 uM measured after 24 hrs by MTT assay relative to control; assay type: functional
[4] = Antiproliferative activity against Wistar/Sprague-Dawley rat cardiac fibroblasts assessed as inhibition of cell proliferation measured after 24 hrs by MTT assay; assay type: functional, CF [Rat heart fibroblast]; details: Fibroblast
[5] = Antiproliferative activity against Sprague-Dawley rat T-HSC/Cl-6 assessed as inhibition of cell proliferation measured after 24 hrs by MTT assay; assay type: functional; details: T-HSC/Cl-6, 24 h
[6] = system: Cardiac fibroblast; assay: Antifibrotic activity against TGFbeta-induced fibrosis in mouse cardiac fibroblasts assessed as reduction in collagen content at 10 ug/ml pretreated with TGFbeta followed by compound treatment and measured after 12 hrs by SDS-PAGE analysis; assay type: functional; details: dose 10.0 µg/ml
[7] = Antifibrotic activity against TGFbeta-induced fibrosis in mouse cardiac fibroblasts assessed as reduction in collagen content at 10 ug/ml pretreated with TGFbeta followed by compound treatment and measured after 12 hrs by SDS-PAGE analysis relative to control; assay type: functional, Cardiac fibroblast; design: scale not given: the % may be the effect or the level left; details: dose 10 µg/ml
[8] = target: T1, Autotaxin; assay: Inhibition of human ATX using FS-3 as substrate measured after 30 mins by fluorescence plate reader assay
[9] = system: Mus musculus; assay: Antifibrotic activity against CCl4-induced fibrosis in Kunming mouse assessed as loss of fiber accumulation at 40 mg/kg, po administered for 2 weeks post CCl-4 challenge by Masson staining based light microscopic analysis; assay type: functional, organism-based
[10] = system: Mus musculus; assay: Antifibrotic activity against CCl4-induced fibrosis in Kunming mouse assessed as decrease in inflammatory cells infiltration at 20 mg/kg, po administered for 2 weeks post CCl-4 challenge by Masson staining based light microscopic analysis; assay type: functional, organism-based
[11] = system: Mus musculus; assay: Antifibrotic activity against CCl4-induced fibrosis in Kunming mouse assessed as loss of fiber accumulation at 40 mg/kg, po administered for 2 weeks post CCl-4 challenge by hematoxylin and eosin staining based light microscopic analysis; assay type: functional, organism-based
[12] = system: Mus musculus; assay: Antifibrotic activity against CCl4-induced fibrosis in Kunming mouse assessed as decrease in inflammatory cells infiltration at 20 mg/kg, po administered for 2 weeks post CCl-4 challenge by hematoxylin and eosin staining based light microscopic analysis; assay type: functional, organism-based
[13] = system: Mus musculus; assay: Antifibrotic activity against CCl4-induced fibrosis in Kunming mouse assessed as decrease in steatosis at 20 mg/kg, po administered for 2 weeks post CCl-4 challenge by hematoxylin and eosin staining based light microscopic analysis; assay type: functional, organism-based
[14] = system: Mus musculus; assay: Antifibrotic activity against CCl4-induced fibrosis in Kunming mouse assessed as loss of bile ductules at 40 mg/kg, po administered for 2 weeks post CCl-4 challenge by hematoxylin and eosin staining based light microscopic analysis; assay type: functional, organism-based
[15] = system: Mus musculus; assay: Antifibrotic activity against CCl4-induced fibrosis in Kunming mouse assessed as decrease in steatosis at 20 mg/kg, po administered for 2 weeks post CCl-4 challenge by Mason staining based light microscopic analysis; assay type: functional, organism-based
[16] = system: Mus musculus; assay: Antifibrotic activity against CCl4-induced fibrosis in Kunming mouse assessed as decrease in fiber accumulation at 20 mg/kg, po administered for 2 weeks post CCl-4 challenge by Masson staining based light microscopic analysis; assay type: functional, organism-based
[17] = system: Mus musculus; assay: Antifibrotic activity against CCl4-induced fibrosis in Kunming mouse assessed as loss of bile ductules at 40 mg/kg, po administered for 2 weeks post CCl-4 challenge by Masson staining based light microscopic analysis; assay type: functional, organism-based
[18] = system: Mus musculus; assay: Antifibrotic activity against CCl4-induced fibrosis in Kunming mouse assessed as decrease in fiber accumulation at 20 mg/kg, po administered for 2 weeks post CCl-4 challenge by hematoxylin and eosin staining based light microscopic analysis; assay type: functional, organism-based
[19] = system: Mus musculus; assay: Antifibrotic activity against CCl4-induced fibrosis in Kunming mouse assessed as loss of inflammatory cells at 40 mg/kg, po administered for 2 weeks post CCl-4 challenge by Masson staining based light microscopic analysis; assay type: functional, organism-based
[20] = system: Mus musculus; assay: Antifibrotic activity against CCl4-induced fibrosis in Kunming mouse assessed as loss of inflammatory cells at 40 mg/kg, po administered for 2 weeks post CCl-4 challenge by hematoxylin and eosin staining based light microscopic analysis; assay type: functional, organism-based

Row | Structure (SMILES) | IC50 [1] | inhibition at 10 µM [2] | inhibition at 10 µM [3] | other results
1 | O=C(N/N=C/c1cc(C(F)(F)F)cc(C(F)(F)F)c1)N1CCc2ncnc(Nc3cccc(C(F)(F)F)c3)c2C1 | – | 42.5% | 62.9% | –
2 | O=C(N/N=C/c1ccc(F)c(Cl)c1)N1CCc2ncnc(Nc3cccc(Br)c3)c2C1 | – | 45.1% | 60.3% | –
3 | Cc1ccc(/C=N/NC(=O)N2CCc3ncnc(Nc4cccc(C(F)(F)F)c4)c3C2)cc1 | 29.1 nM | 72.6% | 77.2% | IC50 [4]: 1510 nM; IC50 [5]: 1140 nM
4 | O=C(CCc1nc2ccccc2s1)N1CCc2ncnc(Cc3ccc(F)cc3)c2C1 | 10.4 nM | 68.4% | 73.8% | IC50 [8]: 29.1 nM
5 | O=C(N/N=C/c1cccnc1)N1CCc2ncnc(Nc3cccc(C(F)(F)F)c3)c2C1 | – | 41.2% | 63.2% | –
6 | O=C(N/N=C/c1ccc[nH]1)N1CCc2ncnc(Nc3cccc(C(F)(F)F)c3)c2C1 | – | 51.3% | 68.8% | –
7 | O=C(N/N=C/c1ccc(OC(F)(F)F)cc1)N1CCc2ncnc(Nc3cccc(Br)c3)c2C1 | – | 48.8% | 54.8% | –
8 | O=C(N/N=C/c1ccco1)N1CCc2ncnc(Nc3cccc(C(F)(F)F)c3)c2C1 | – | 54.1% | 71.5% | –
9 | CS(=O)(=O)c1ccc(/C=N/NC(=O)N2CCc3ncnc(Nc4cccc(C(F)(F)F)c4)c3C2)cc1 | 35.8 nM | 45.9% | 61.5% | –
10 | Cc1ccc(/C=N/NC(=O)N2CCc3ncnc(Nc4cccc(Br)c4)c3C2)cc1C | – | 41.7% | 49.2% | –
11 | O=C(N/N=C/c1cc(F)c(F)cc1Cl)N1CCc2ncnc(Nc3cccc(Br)c3)c2C1 | – | 41.7% | 56.7% | –
12 | O=C(N/N=C/c1ccccc1)N1CCc2ncnc(Nc3cccc(C(F)(F)F)c3)c2C1 | – | 48.3% | 57.4% | –
13 | O=C(N/N=C/c1ccc(OC(F)(F)F)cc1)N1CCc2ncnc(Nc3cccc(C(F)(F)F)c3)c2C1 | 41.2 nM | 67.1% | 65% | –
14 | Cc1cc(C)c(/C=N/NC(=O)N2CCc3ncnc(Nc4ccc(F)c(Cl)c4)c3C2)c(C)c1 | – | 54% | 58.1% | –
15 | O=C(N/N=C/c1cc(C(F)(F)F)cc(C(F)(F)F)c1)N1CCc2ncnc(Nc3cccc(Br)c3)c2C1 | 29.1 nM | 70.1% | 62.1% | –

Continued, in another order:

Row | IC50 [1] | Structure (SMILES) | inhibition at 10 µM [2] | inhibition at 10 µM [3] | other results
16 | 30.2 nM | O=C(N/N=C/c1cccc(C(F)(F)F)c1)N1CCc2ncnc(Nc3cccc(Br)c3)c2C1 | 51.8% | 64.8% | –
17 | 24.2 nM | O=C(N/N=C/c1ccc(Cl)cc1)N1CCc2ncnc(Nc3ccc(F)c(Cl)c3)c2C1 | 81.5% | 79.4% | Activity [6]: Active; IC50 [4]: 870 nM; IC50 [5]: 1100 nM; Activity [7]: 74.4%
18 | 35.3 nM | O=C(N/N=C/c1cccc(Br)c1)N1CCc2ncnc(Nc3cccc(C(F)(F)F)c3)c2C1 | 54.6% | 68.1% | –
19 | 34.7 nM | CS(=O)(=O)c1ccc(/C=N/NC(=O)N2CCc3ncnc(Nc4cccc(Br)c4)c3C2)cc1 | 43.7% | 55% | –
20 | 33.9 nM | O=C(N/N=C/c1ccc(Cl)cc1Cl)N1CCc2ncnc(Nc3cccc(C(F)(F)F)c3)c2C1 | 58.5% | 66.3% | –
21 | 31.3 nM | O=C(N/N=C/c1ccc(O)c(Br)c1)N1CCc2ncnc(Nc3ccc(F)c(Cl)c3)c2C1 | 69% | 72% | –
22 | 21 nM | CS(=O)(=O)c1ccc(/C=N/NC(=O)N2CCc3ncnc(Nc4ccc(F)c(Cl)c4)c3C2)cc1 | 66.2% | 60.3% | –
23 | 15.3 nM | O=C(N/N=C/c1ccc(Cl)cc1)N1CCc2ncnc(Nc3cccc(C(F)(F)F)c3)c2C1 | 73.8% | 83.7% | Activity [9]: Active; Activity [6]: Active; Activity [10]: Active; Activity [11]: Active; Activity [12]: Active; Activity [13]: Active; Activity [14]: Active; Activity [15]: Active; Activity [16]: Active; IC50 [4]: 1210 nM; Activity [17]: Active; Activity [18]: Active; IC50 [5]: 780 nM; Activity [19]: Active; Activity [20]: Active
24 | 43.8 nM | O=C(N/N=C/c1cc([N+](=O)[O-])ccc1Cl)N1CCc2ncnc(Nc3ccc(F)c(Cl)c3)c2C1 | 72.1% | 74.7% | –
25 | 27.5 nM | O=C(N/N=C/c1ccc(Cl)cc1)N1CCc2ncnc(Nc3cccc(Br)c3)c2C1 | 61.1% | 72.5% | –
26 | 26.9 nM | O=C(N/N=C/c1ccc(F)cc1Cl)N1CCc2ncnc(Nc3cccc(C(F)(F)F)c3)c2C1 | 55.2% | 70.6% | –
